Reference: patent US6057441A, “Substituted tetracyclic tetrahydrofuran derivatives” (Janssen Pharmaceutica, N.V., priority 1996, dated 2000)
Counter-ions that a name gives are not always drawn.

Legend:
[1] = dose of 300 mg/kg; cited from earlier work
[2] = tested on: mCPP (metachlorophenylpiperazine) induced effects; assay: mCPP Test on Rats; format: in vivo, rat; conditions: pre-test time T of 1 hour, 1 mg/kg mCPP intravenously 15 minutes prior to the test, Open Field Test; for ED40: Rattus norvegicus, iv, read-out: active dose (dose at which 40% of the tested rats showed suppression of the mCPP induced effects, i.e. mCPP-antagonism)
Method: Rats were treated with the test compound at a dose varying between 0.0025 mg/kg and 40 mg/kg body weight at a pre-test time T of 1 hour, and with 1 mg/kg mCPP (metachlorophenylpiperazine), injected intravenously, 15 minutes prior to the test. After pre-test time T elapsed, treated rats were submitted to the "Open Field Test on Rats" as described in Drug. Dev. Res. 18, 119-144 (1989), but using an infra-red light source instead of a Kleverlux® (12 V/20 W) light source. […] Compounds number 1, 2, 4 and 9 were active at a test dose of 2.5 mg/kg or less.

[3] = molecular target: T1, 5-HT2C receptor (Sus scrofa, UniProt K7GSR7); assay: In vitro radioligand binding affinity for 5-HT2C receptor (3H-mesulergine, choroid plexus); conditions: test concentration of 10^-7 M, choroid plexus of the pig
T1 construct: the tissue used is the choroid plexus of the pig; from tissue; host or cells: pig choroid plexus
T1 sequence (K7GSR7 1-457): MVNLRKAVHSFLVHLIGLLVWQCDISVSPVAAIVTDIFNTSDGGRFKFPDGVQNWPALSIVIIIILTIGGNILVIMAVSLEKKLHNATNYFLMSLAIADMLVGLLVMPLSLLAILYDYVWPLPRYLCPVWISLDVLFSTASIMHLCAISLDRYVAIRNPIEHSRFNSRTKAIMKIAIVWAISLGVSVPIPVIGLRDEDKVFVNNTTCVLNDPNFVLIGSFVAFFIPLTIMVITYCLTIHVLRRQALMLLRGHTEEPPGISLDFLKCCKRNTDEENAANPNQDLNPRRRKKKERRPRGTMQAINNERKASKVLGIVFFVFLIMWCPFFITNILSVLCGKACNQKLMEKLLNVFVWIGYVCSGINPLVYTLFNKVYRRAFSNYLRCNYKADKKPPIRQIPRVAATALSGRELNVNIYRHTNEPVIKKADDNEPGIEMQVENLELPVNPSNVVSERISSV
Method: (§1) The interaction of the compounds of formula (I) with 5-HT2A and 5-HT2C receptors was assessed in in vitro radioligand binding experiments. In general, a low concentration of a radioligand with a high binding affinity for the receptor is incubated with a sample of a tissue preparation enriched in a particular receptor (1 to 5 mg tissue) in a buffered medium (0.2 to 5 ml). During the incubation, the radioligands bind to the receptor. When equilibrium of binding is reached, the receptor bound radioactivity is separated from the non-bound radioactivity, and the receptor bound activity is counted. The interaction of the test compounds with the receptors is assessed in competition binding experiments. Various concentrations of the test compound are added to the incubating mixture containing the tissue preparation and the radioligand. Binding of the radioligand will be inhibited by the test compound in proportion to its binding affinity and its concentration. The radioligand used for 5-HT2A binding affinity is ^3 H-ketanserin and the tissue used is the frontal cortex of the rat. […] The radioligand used for 5-HT2C binding affinity is ^3 H-mesulergine and the tissue used is the choroid plexus of the pig.

[4] = molecular target: T2, 5-HT2A receptor (Rattus norvegicus, UniProt P14842); assay: In vitro radioligand binding affinity for 5-HT2A receptor (3H-ketanserin, frontal cortex); conditions: test concentration of 10^-7 M, frontal cortex of the rat
T2 construct: the tissue used is the frontal cortex of the rat; from tissue; host or cells: rat frontal cortex
Method: as §1

T2 sequence (P14842 whole entry): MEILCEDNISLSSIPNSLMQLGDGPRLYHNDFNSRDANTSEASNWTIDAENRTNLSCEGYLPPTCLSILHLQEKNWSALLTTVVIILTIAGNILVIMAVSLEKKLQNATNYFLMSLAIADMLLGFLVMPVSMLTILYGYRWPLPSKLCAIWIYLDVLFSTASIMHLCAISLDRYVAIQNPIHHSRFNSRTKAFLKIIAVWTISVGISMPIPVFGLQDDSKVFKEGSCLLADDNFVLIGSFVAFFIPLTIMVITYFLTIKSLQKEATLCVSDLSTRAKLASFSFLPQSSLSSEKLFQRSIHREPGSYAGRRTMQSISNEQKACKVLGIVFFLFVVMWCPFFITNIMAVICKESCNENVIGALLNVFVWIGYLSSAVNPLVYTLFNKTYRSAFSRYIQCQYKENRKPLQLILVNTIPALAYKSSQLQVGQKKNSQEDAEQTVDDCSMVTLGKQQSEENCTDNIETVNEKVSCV

| SMILES | ED40 [2] [mg/kg] | inhibition at 0.1 µM [3] [%] | inhibition at 0.1 µM [4] [%] | further results |
| --- | --- | --- | --- | --- |
| CNCC1CC2c3ccccc3Cc3ccccc3C2O1.O=C(O)C(=O)O (racemic) [(±)-3,3a,8,12b-tetrahydro-N-methyl-2H-dibenzo[3,4:6,7]-cyclohepta[1,2-b]furan-2-methanamine oxalic acid] | – | – | – | antidepressant activity [1]: inactive |
| CN(C)CC1CC2c3ccccc3Oc3ccccc3C2O1 (racemic) [Compound 1, (±)-2,3,3a,12b-tetrahydro-N,N-dimethyldibenzo[bf]furo[2,3-d]oxepin-2-methanamine] | ≤ 2.5 | > 40 | – | – |
| OCCN1CCN(CC2CC3c4ccccc4Cc4ccccc4C3O2)CC1 (racemic) [Compound 3, (±)-4-[(3,3a,8,12b-tetrahydro-2H-dibenzo[3,4:6,7]cyclohepta[1,2-b]furan-2-yl)methyl]-1-piperazineethanol dihydrochloride] | – | > 40 | > 40 | – |
| CN(C)CC1CC2c3ccccc3Cc3ccccc3C2O1.Cl (racemic) [Compound 4, (±)-3,3a,8,12b-tetrahydro-N,N-dimethyl-2H-dibenzo[3,4:6,7]cyclohepta[1,2-b]furan-2-methanamine hydrochloride (1:1)] | ≤ 2.5 | > 40 | > 40 | – |
| CN(C)CC1CC2c3ccccc3Oc3ccccc3C2O1 (stereo not shown) [Compound 2] | – | – | – | active dose (dose at which 40% of the tested rats showed suppression of the mCPP induced effects, i.e. mCPP-antagonism) [2]: ≤ 2.5 mg/kg; inhibition of the 5-HT2C receptor [3]: less than 40% |
| CN1CCN(CC2CC3c4ccccc4Cc4ccccc4C3O2)CC1 (stereo not shown) [Compound 5] | – | > 40 | > 40 | – |
| Clc1cccc(N2CCN(CC3CC4c5ccccc5Cc5ccccc5C4O3)CC2)c1 (stereo not shown) [Compound 6] | – | > 40 | – | – |
| c1ccc(C2CCN(CC3CC4c5ccccc5Cc5ccccc5C4O3)CC2)cc1 (stereo not shown) [Compound 7] | – | > 40 | – | – |
| O=C(c1ccc(F)cc1)C1CCN(CC2CC3c4ccccc4Cc4ccccc4C3O2)CC1 (stereo not shown) [Compound 8] | – | > 40 | > 40 | – |
| c1ccc2c(c1)Cc1ccccc1C1OC(CN3CCOCC3)CC21 (stereo not shown) [Compound 9] | ≤ 2.5 | > 40 | > 40 | – |
